US20250235545A1, “POLYPEPTIDE CONJUGATE AND USE THEREOF” (SHANGHAI CHIXI BIOMEDICAL TECHNOLOGY CO., LTD, priority 2024, published 2025)
Converted amounts (≈) assume the structure as drawn. Like-named read-outs stand apart in the source and are kept apart here. Where a SMILES comes first, the peptide text is derived from it. The star is where a group is joined. X6 = CCCCCN(CCc1c2c(nc3ccccc13)-c1cc3c(c(=O)n1C2)COC(=O)[C@]3(O)CC)*; X1 = CC[C@@]1(O)C(=O)OCc2c1cc1n(c2=O)Cc2c-1nc1ccccc1c2CCN(C1CCC1)*; X4 = CCCN(CCc1c2c(nc3ccccc13)-c1cc3c(c(=O)n1C2)COC(=O)[C@]3(O)CC)*; X3 = CC[C@@]1(O)C(=O)OCc2c1cc1n(c2=O)Cc2c-1nc1ccccc1c2CCN(C1CC1)*; Propanoyl(3-maleimido) = O=C1C=CC(=O)N1CCC(=O)*; PEG6 = NCCOCCOCCOCCOCCOCCOCCC(=O)O

How the values were obtained:
A2780 (ovarian cancer) = assay: cells; format: cell-based; conditions: CCK8, 48 h; Table 1
Outline: (§1)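 5,000 cells/well; compound dilution series, triplicates; vehicle 0.1% DMSO; medium RPMI1640 or DMEM high glucose + 10% FBS + 1 mM pyruvate. 48 h, 37° C, 5% CO2. CCK8 ~2 h, OD450. IC50 calculated.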

[1] = test system: A549 (non-small cell lung cancer); assay: cells; format: cell-based; conditions: CCK8, 48 h; Table 1
Outline: as §1

SJSA-1 (sarcoma tissue) = assay: cells; format: cell-based; conditions: CCK8, 48 h; Table 1
Outline: as §1

[2] = test system: SKBR3 (breast cancer tissue); assay: cells; format: cell-based; conditions: CCK8, 48 h; Table 1
Outline: as §1

[3] = test system: sarcoma SJSA-1 tumor model; conditions: Table 2
Outline: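 SJSA-1 cells (2×10^7, DMEM/10% FBS, under 15 passages) implanted subcutaneously in right chest of female BALB/c nude mice, 6-8 weeks old. At ≥100 mm^3, randomized three per group; dosing once weekly for three weeks, saline as control, day 1 = first treatment.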

[4] = test system: colo320 colorectal cancer tumor model
Outline: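 Female BALB/c nude mice, 6–8 weeks old, received 7.5×10^6 colo320 cells subcutaneously in the right chest. Once tumors reached at least 120 mm^3 they were randomized three per group. Treatment with test agents or saline control was given once weekly for four weeks.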

[5] = test system: sarcoma SJSA-1 tumor model; assay: Efficacy in animal model of sarcoma SJSA-1, 30 mg/kg once a week for two weeks (Example 40); format: in vivo, BALB/c mice; conditions: 30 mg/kg once a week for two weeks
Method: Test objective: To further compare the antitumor efficacy of different polypeptide Linkers in an animal tumor model of sarcoma SJSA-1.
(§2) Test drug: Polypeptide conjugate and normal saline control group.
The control group was administered normal saline. Administration was performed once a week for two weeks.

[6] = test system: A2780 ovarian cancer tumor model; assay: Efficacy in animal model of A2780 ovarian cancer, 30 mg/kg once a week for two weeks (Example 41); format: in vivo, BALB/c mice
Method: Test objective: To further compare the antitumor efficacy of different polypeptide Linkers in an animal tumor model of A2780 ovarian cancer.
as §2
8×10^6 corresponding cells were injected into right axillas of nude mice subcutaneously. […] The negative control group was administered normal saline. Administration was performed once a week for two weeks.

[7] = MTD determination in mice (Examples 27, 36, 44); format: in vivo; conditions: female, mouse, in vivo; mice, monitored for 14 d; Table 4
Text: Test animals: 6-8 weeks old mice, all female; mice were grouped randomly, with six mice in each group, administered with drugs at different concentration gradients separately and monitored for 14 d. A mouse was euthanized at a loss of 20% of its initial weight and deemed to have died of poisoning.

[8] = Tumor homogenate activation efficiency, ovarian cancer tissue (Examples 28, 37); format: in vitro ADME; conditions: pH 5.0, 37° C., 2 h; Table 5
Method: (§3) Buffer preparation: 50 mM PH buffer (MES), 250 mM NaCl, pH adjusted to 5.0 with 0.5 M of sodium hydroxide.
(§4) The polypeptide conjugate was prepared into a 1 mg/ml solution with pH 5.0 buffer, 100 μg of tumor tissue homogenate was added, (the tumor tissue homogenate was the homogenate of tumor tissues prepared with a Jingxin F6/10 handheld homogenizer), and the solution was placed at 37° C. for 2 h. The tumor tissue homogenate could effectively activate the polypeptide conjugate and release Belotecan, and the activation efficiencies of the drugs in tumor tissues were compared by high-performance liquid chromatography (HPLC) allowing determination of a decrease in the compounds and an increase in Belotecan:
(§5) Release percentage=peak area of Belotecan/total peak area of Belotecan and all other Belotecan-containing compounds
as §4, with “HPLC” for “high-performance liquid chromatography (HPLC)”, “Belotecan: […]” for “Belotecan:”

[9] = Tumor homogenate activation efficiency, sarcoma tissue (Examples 28, 37); format: in vitro ADME; conditions: pH 5.0, 37° C., 2 h; Table 5
Method: as §3, §4, §5
as §4, with “HPLC” for “high-performance liquid chromatography (HPLC)”, “Belotecan: […]” for “Belotecan:”

[10] = Tumor homogenate activation efficiency, breast cancer tissue (Examples 28, 37); format: in vitro ADME; conditions: pH 5.0, 37° C., 2 h; Table 5
Method: as §3, §4, §5
as §4, with “HPLC” for “high-performance liquid chromatography (HPLC)”, “Belotecan: […]” for “Belotecan:”

[11] = Tumor homogenate activation efficiency, non-small cell lung cancer tissue (Examples 28, 37); format: in vitro ADME; conditions: pH 5.0, 37° C., 2 h; Table 5
Method: as §3, §4, §5
as §4, with “HPLC” for “high-performance liquid chromatography (HPLC)”, “Belotecan: […]” for “Belotecan:”

[12] = Tumor homogenate activation efficiency, small cell lung cancer tissue (Example 28); format: in vitro ADME; conditions: pH 5.0, 37° C., 2 h; Table 5
Method: as §3, §4, §5

[13] = Homogenate activation efficiency, heart tissue (Examples 28, 37); format: in vitro ADME; conditions: pH 5.0, 37° C., 2 h; Table 5
[14] = 15 mg/kg once a week for three weeks
[15] = 45 mg/kg once a week for three weeks
[16] = 15 mg/kg once a week for four weeks, Table 3
[17] = 45 mg/kg once a week for four weeks, Table 3
[18] = Table 14 (Example 43), dose 45 mg/kg, once a week for four weeks, BALB/c mice

Structure (SMILES) | IC50 A2780 (ovarian cancer) (A2780 (ovarian cancer)) [µg/mL] | IC50 A549 (non-small cell lung cancer) [1] [µg/mL] | IC50 SJSA-1 (sarcoma tissue) (SJSA-1 (sarcoma tissue)) [µg/mL] | IC50 SKBR3 (breast cancer tissue) [2] [µg/mL] | Mouse weight (%) [3, 14] | SJSA-1 (sarcoma tissue) mean tumor volume (mm^3) [3, 14] [mm^3] | SJSA-1 (sarcoma) Growth rate (%) [3, 14] [%] | Mouse weight (%) [3, 15] | SJSA-1 (sarcoma tissue) mean tumor volume (mm^3) [3, 15] [mm^3] | Mouse weight (%) [4, 16] | Mouse weight (%) [4, 17] | Mouse weight (%) on Day 14 [5] | Mouse weight (%) on Day 14 [6] | MTD at 14 d [7] [mg/kg] | Percentage of release efficiency (%) Ovarian cancer tissue (A2780) [8] [%] | Percentage of release efficiency (%) Sarcoma tissue (SJSA1) [9] [%] | Percentage of release efficiency (%) Breast cancer tissue (SKBR3) [10] [%] | Percentage of release efficiency (%) Non-small cell lung cancer tissue (A549) [11] [%] | Percentage of release efficiency (%) Small cell lung cancer tissue (NCI-H841) [12] [%] | Percentage of release efficiency (%) Heart tissue [13] [%] | other results
CCCN(CCc1c2c(nc3ccccc13)-c1cc3c(c(=O)n1C2)COC(=O)[C@]3(O)CC)C(=O)CNC(=O)[C@H](CC(N)=O)NC(=O)[C@H](C)NC(=O)[C@H](C)NC(=O)CCOCCOCCOCCOCCOCCOCCNC(=O)CCN1C(=O)C=CC1=O [MI-6PEG-AANG-D3] ({Propanoyl(3-maleimido)-PEG6}-AANG-X4) | 1.80 (≈ 1.46 µM) | 3.41 (≈ 2.76 µM) | 1.63 (≈ 1.32 µM) | 2.42 (≈ 1.96 µM) | +29% | 1325.4 | 1095.4 | +26% | 1098.2 | +31% | +20% | +3.6% | +11.4% | 350 | 76.2 | 88.9 | 84.6 | 82.6 | 71.2 | 3.6 | SJSA-1 (sarcoma) Growth rate (%) [3, 15]: 930.68%; colo320 (colorectal cancer cell) growth rate (%) [4, 16]: 985.14%; colo320 (colorectal cancer cell) mean tumor volume (mm^3) [4, 16]: 1091.1 mm^3; colo320 (colorectal cancer cell) growth rate (%) [4, 17]: 481.06%; colo320 (colorectal cancer cell) mean tumor volume (mm^3) [4, 17]: 532.8 mm^3; SJSA-1 (sarcoma tissue) mean tumor volume (mm^3) Day 1 [5]: 132.12 mm^3; SJSA-1 (sarcoma tissue) mean tumor volume (mm^3) Day 4 [5]: 360.28 mm^3; SJSA-1 (sarcoma tissue) mean tumor volume (mm^3) Day 7 [5]: 610.04 mm^3; SJSA-1 (sarcoma tissue) mean tumor volume (mm^3) Day 10 [5]: 833.76 mm^3; SJSA-1 (sarcoma tissue) growth rate (%) on Day 14 [5]: 1002.12%; SJSA-1 (sarcoma tissue) mean tumor volume (mm^3) Day 14 [5]: 1324.00 mm^3; A2780 (ovarian cancer) mean tumor volume (mm^3) Day 1 [6]: 138.55 mm^3; A2780 (ovarian cancer) mean tumor volume (mm^3) Day 4 [6]: 302.74 mm^3; A2780 (ovarian cancer) mean tumor volume (mm^3) Day 7 [6]: 742.51 mm^3; A2780 (ovarian cancer) mean tumor volume (mm^3) Day 10 [6]: 898.06 mm^3; A2780 (ovarian cancer) mean tumor volume (mm^3) Day 14 [6]: 1141.65 mm^3; Growth rate (%) of A2780 (ovarian cancer) on Day 14 [6]: 824.00%
CCCCCN(CCc1c2c(nc3ccccc13)-c1cc3c(c(=O)n1C2)COC(=O)[C@]3(O)CC)C(=O)CNC(=O)[C@H](CC(N)=O)NC(=O)[C@H](C)NC(=O)[C@H](C)NC(=O)CCOCCOCCOCCOCCOCCOCCNC(=O)CCN1C(=O)C=CC1=O [MI-6PEG-AANG-D4] ({Propanoyl(3-maleimido)-PEG6}-AANG-X6) | 4.88 (≈ 3.87 µM) | 6.37 (≈ 5.05 µM) | 2.52 (≈ 2 µM) | 4.54 (≈ 3.6 µM) | +27% | 1305.6 | 1081.87 | +26% | 994.5 | +40% | +18% | +4.1% | +9.6% | 350 | 86.7 | 72.4 | 80.7 | 78.7 | 67.2 | 2.4 | SJSA-1 (sarcoma) Growth rate (%) [3, 15]: 842.80%; colo320 (colorectal cancer cell) growth rate (%) [4, 16]: 870.11%; colo320 (colorectal cancer cell) mean tumor volume (mm^3) [4, 16]: 963.7 mm^3; colo320 (colorectal cancer cell) growth rate (%) [4, 17]: 544.80%; colo320 (colorectal cancer cell) mean tumor volume (mm^3) [4, 17]: 603.4 mm^3; SJSA-1 (sarcoma tissue) mean tumor volume (mm^3) Day 1 [5]: 131.57 mm^3; SJSA-1 (sarcoma tissue) mean tumor volume (mm^3) Day 4 [5]: 385.46 mm^3; SJSA-1 (sarcoma tissue) mean tumor volume (mm^3) Day 7 [5]: 607.62 mm^3; SJSA-1 (sarcoma tissue) mean tumor volume (mm^3) Day 10 [5]: 847.33 mm^3; SJSA-1 (sarcoma tissue) growth rate (%) on Day 14 [5]: 941.81%; SJSA-1 (sarcoma tissue) mean tumor volume (mm^3) Day 14 [5]: 1239.14 mm^3; A2780 (ovarian cancer) mean tumor volume (mm^3) Day 1 [6]: 138.58 mm^3; A2780 (ovarian cancer) mean tumor volume (mm^3) Day 4 [6]: 278.49 mm^3; A2780 (ovarian cancer) mean tumor volume (mm^3) Day 7 [6]: 624.53 mm^3; A2780 (ovarian cancer) mean tumor volume (mm^3) Day 10 [6]: 791.18 mm^3; A2780 (ovarian cancer) mean tumor volume (mm^3) Day 14 [6]: 977.54 mm^3; Growth rate (%) of A2780 (ovarian cancer) on Day 14 [6]: 705.40%
CC[C@@]1(O)C(=O)OCc2c1cc1n(c2=O)Cc2c-1nc1ccccc1c2CCN(C(=O)CNC(=O)[C@H](CC(N)=O)NC(=O)[C@H](C)NC(=O)[C@H](C)NC(=O)CCOCCOCCOCCOCCOCCOCCNC(=O)CCN1C(=O)C=CC1=O)C1CC1 [MI-6PEG-AANG-D6] ({Propanoyl(3-maleimido)-PEG6}-AANG-X3) | 0.77 (≈ 0.625 µM) | 1.55 (≈ 1.26 µM) | 0.49 (≈ 0.398 µM) | 1.81 (≈ 1.47 µM) | +24% |  |  | +3% |  | +27% | +17% | −0.6% | +8.5% | 200 | 75.9 | 79.9 | 82.1 | 73.1 | 76 | 2.5 | Mouse weight (%) [4, 18]: +17%
CC[C@@]1(O)C(=O)OCc2c1cc1n(c2=O)Cc2c-1nc1ccccc1c2CCN(C(=O)CNC(=O)[C@H](CC(N)=O)NC(=O)[C@H](C)NC(=O)[C@H](C)NC(=O)CCOCCOCCOCCOCCOCCOCCNC(=O)CCN1C(=O)C=CC1=O)C1CCC1 [MI-6PEG-AANG-D7] ({Propanoyl(3-maleimido)-PEG6}-AANG-X1) | 1.21 (≈ 0.972 µM) | 1.89 (≈ 1.52 µM) | 0.53 (≈ 0.426 µM) | 2.64 (≈ 2.12 µM) | +31% |  |  | +26% |  | +26% | +31% | +1.6% | +15.6% | 250 | 84.5 | 64.3 | 78.8 | 77 | 66.1 | 2 | Mouse weight (%) [4, 18]: +31%
